Results from patent US12384767B2, “Probe for detection of cathepsin activity” (University of Florida Research Foundation, Incorporated, priority 2020, dated 2025).
Read-outs that look alike come from different tables or passages of the source. Residues, ends and D or L forms follow the SMILES beside them. *: point of attachment. AMC = Cc1cc(=O)oc2cc(N*)ccc12; Cbz = O=C(OCc1ccccc1)*

How the values were obtained:
CTB, CTV, and CTS = experiment: Time-course cathepsin assay, total competing signal (sum of CTB, CTV, and CTS) normalized to CTL; type: biochemical, human; settings: 5 uM probe, 5 nM enzyme
Excerpt: (§1) CTV and CTB appear to remain within the initial velocity region of the curves during this time, with a markedly lower slope than that observed for CTL initially.
(§2) The kinetic assays were repeated at pH 5.0 (FIG. 3C, D), and overall the same trends were observed as at pH 6.5. One notable difference is the altered reaction slope of CTL at this pH, which appears to have less of a plateau and instead seems to shift to a second phase of constant, yet slower, velocity. […] This improved activity of CTB at low pH is consistent with previous observations that CTB's unique carboxypeptidase activity is dependent on an acidic environment, and that this activity is disengaged at neutral pH^13.
(§3) To estimate relative selectivity of the compounds for CTL over the other enzymes, the intensity at each time point for CTB, CTV, or CTS, was divided by the intensity of CTL at the same time point; this normalizes CTL-generated signal intensity to 1.0, and expresses the relative signal generated by the other enzymes (FIG. 5). These graphs indicate that off-target signal is least prominent within the first 10 min of incubation, as the faster kinetics of the probes to CTL generate more contrast at these earlier time points. To quantify the selectivity of CTLAP and sc-3136, the lowest interfering signal from each enzyme was identified and tabulated in Table 1. Also identified was the assay time at which the total competing signal (sum of CTB, CTV, and CTS) was lowest, and the relative intensity of all competing enzymes at that time point. […] The optimum results are achieved within 10 min incubation time, lending strength to the application of CTLAP for rapid detection of CTL, even in the presence of competing enzymes.
Table 1. Signal generated by CTB, CTV, and CTS, or all three enzymes together, relative to CTL signal at that time point. The lowest competing signal over the time course in FIG. 5 was selected for each individual enzyme, as well as for the sum of signals from all three enzymes. The time point at which the sum of all competing signals is lowest is also listed.
• 1. Recombinant human Cathepsin L/MEP protein (Active) • a. Product ab174030; Lot No. (Conc.) GR3210572-1 (N/A) Sino Biological • 1. Human Cathepsin B/CTSB Protein (His Tag) • a. Cat. No. 10483-H08H • 2. Human Cathepsin V/Cathepsin L2/Preproprotein Protein (His Tag) • a. Cat. No. 10093-H08H • 3. Human Cathepsin S/CTSS Protein (His Tag) • a. Cat. No. 10487-H08H Santa Cruz Biotechnology, Inc. • 1. […]
(§4) Cathepsins reconstituted as usual and diluted into cathepsin reaction buffers (pH 5.0 or 6.5) in an opaque-bottom 96-well plate. Probes added quickly to each active well, then emission measured immediately on BioTek Synergy H1 plate reader, collecting consecutive 36 sec runs over the first 15 min of reaction time. […]

[1] = target: T1, CTL (Recombinant human Cathepsin L) (Homo sapiens, UniProt P07711); experiment: Probe activation by CTL, turn-on ratio and selectivity; type: biochemical
T1 construct: purchased Abcam ab174030
Procedure: as §1
To determine the relative selectivity of either probe for CTL, we examined the turn-on ratio (TOR) of the probes in response to each enzyme over the first hour of incubation by dividing the emission intensity at each time point by the average intensity of the probe in buffer without enzyme (FIG. 4).
(§5) • 1. Recombinant human Cathepsin L/MEP protein (Active) • a. Product ab174030; Lot No. (Conc.) GR3210572-1 (N/A) Sino Biological • 1. Human Cathepsin B/CTSB Protein (His Tag) • a. Cat. No. 10483-H08H • 2. Human Cathepsin V/Cathepsin L2/Preproprotein Protein (His Tag) • a. Cat. No. 10093-H08H • 3. Human Cathepsin S/CTSS Protein (His Tag) • a. Cat. No. 10487-H08H Santa Cruz Biotechnology, Inc. • 1. […] Enzyme storage and preparation:
Enzyme stocks (2.5 uM) were thawed and diluted to 100 nM with cathepsin storage buffer (pH 5.5). From calibrated probe stocks were created 50 uM working stocks in DMSO (3-157 accidentally prepared to 62.5 uM instead). In a 96-well plate, solutions of cathepsin reaction buffer (either pH 5.0 or 6.5), enzyme (5 nM), and probe (5 uM) were prepared. Probe added last to the reaction wells, then read in Synergy H1 plate reader immediately (˜5 min) for emission intensity at 350-445 nm. The plate was read at various time points, then stored in fridge overnight but not quenched. The pH 5.0 plate was read again after 48 h to capture completed reaction stage, and to collect emission spectra at 350 nm excitation for both caged and activated compound wells. […]
as §4

[2] = target: T1, CTL (Recombinant human Cathepsin L); experiment: HPLC analysis of probe processing by CTL; type: biochemical; settings: incubated with CTL in buffer at pH 5.0
Procedure: To confirm recognition of CTLAP by CTL, the probe was incubated with CTL in buffer at pH 5.0, and the probe was examined by HPLC analysis (FIG. 2). The compound alone in buffer retained maximum absorption at 330 nm.
[4-105] Cathepsin L reconstituted as per manufacturer's instructions, then diluted in a preliminary cathepsin storage buffer, in line with a literature procedure^16 (100 mM NaOAc/MaOH, 100 mM NaCl, 10 mM DTT, 1 mM EDTA, pH 5.5). Frozen in −80° C. freezer, and a portion removed and diluted in more cathepsin storage buffer to create 100 nM stock.
In opaque-bottom […], buffer (unfiltered) plated, then probes added, then enzyme added. Final solution in each well was 5 uM probe, 5 nM CTL, 10% DMSO/NaOAc buffer. Incubated at 37° C., removed at 10 min, 30 min, 1 h, and 4 h for measurement on plate reader (Synergy H1). […] Stored in tin foil at rt for 2 days, then stored in fridge.
To observe probe conversion, a well was diluted with DI water and injected into HPLC. […] The UV absorption traces of the new product(s) matched that of AMC.

[3] = target: T2, CTV (Human Cathepsin V/Cathepsin L2) (Homo sapiens, UniProt O60911); experiment: Time-course cathepsin assay, CTV signal normalized to CTL; type: biochemical; settings: 5 uM probe, 5 nM enzyme, lowest competing signal over time course
T2 construct: His; purchased Sino Biological 10093-H08H
Excerpt: as §1, §2, §3, §5
(§6) Cathepsins reconstituted as usual and diluted into cathepsin reaction buffers (pH 5.0 or 6.5) in an opaque-bottom 96-well plate. Probes added quickly to each active well, then emission measured immediately on BioTek Synergy H1 plate reader, collecting consecutive 36 sec runs over the first 15 min of reaction time. Final probe concentration was 5 uM and final enzyme concentration was 5 nM.

[4] = Molar attenuation coefficient and quantum yield; type: physicochemical; settings: for ε × 10^−3 (molar attenuation coefficient): absorption at 350 nm, standardized against 4-methylumbelliferone (MU); for ϕF (quantum yield): excitation 350 nm, emission 380-600 nm, standardized against MU
Procedure: To determine quantum yields, standard curves of CTLAP and sc-3136 were constructed between 0-10 μM in buffer, and the absorbance and total emission was measured. Values for the molar attenuation coefficient and quantum yield were standardized using measured absorption and emission intensity of 4-methylumbelliferone (MU) and its literature quantum yield and molar attenuation coefficient^14. Absorption of the solutions at 350 nm was measured, and all three compounds reported good (R^2>0.96) linear fit with increasing concentration (FIG. 10A). To measure total emission intensity, the emission spectrum of each compound was collected between 380-600 nm at an excitation wavelength of 350 nm; the area under the emission curve was calculated and graphed as a function of absorption value at 350 nm for each sample (FIG. 10B).
Compounds were compared to 4-methylumbelliferone (4-MU) and 2,4-difluoro-4-methylumbelliferone (DiFMU).
To construct calibration curves, stock solutions of 4-MU and DiFMU were prepared at ˜1 mM, then diluted with buffer (carbonate buffer, pH 10) to 50 uM. From these solutions, standard curves were constructed at 50, 25, 10, 5, and 1 uM by dilution with carbonate buffer, pH 10.1. Solutions were plated in 96-well plates. Absorbance at 350 nm was measured, and the fluorescence curve at 350 nm excitation and 380-600 nm was measured. The absorbance at 350 nm was graphed against the area under the curve (AUC) of the fluorescence spectrum from 380-600 nm, and the slope of each line was used to calculate the quantum yield according to the equation: […]

[5] = target: T3, CTS (Human Cathepsin S/CTSS Protein) (Homo sapiens, UniProt P25774); experiment: Time-course cathepsin assay, CTS signal normalized to CTL; type: biochemical; settings: 5 uM probe, 5 nM enzyme, lowest competing signal over time course
T3 construct: His; purchased Sino Biological 10487-H08H
Excerpt: as §1, §2, §3, §5, §6

[6] = target: CTB (Human Cathepsin B/CTSB Protein) (Homo sapiens, UniProt P07858); experiment: Time-course cathepsin assay, CTB signal normalized to CTL; type: biochemical; settings: 5 uM probe, 5 nM enzyme, lowest competing signal over time course
Excerpt: as §1, §2, §3, §5, §6

[7] = Background emission intensity of probes in buffer without enzyme; type: physicochemical; settings: for emission intensity (background): stocks of equal absorbance at 330 nm, quadruplicate
Procedure: This is attributed to the lower emission intensity observed in CTLAP in buffer without enzyme; the measured emission intensity of the compound at 5 μM is consistently 6- to 8-fold lower than that of sc-3136 (FIG. 6). As low background signal can improve the sensitivity and detection limit of fluorogenic assays, we sought to identify the cause of the low background intensity of CTLAP. We first examined the spectral and photophysical properties of the compound to confirm that this low background intensity was not an artifact of experimental methods.
We next tested hypothesis (2), that the emission intensity measured for CTLAP or sc-3136 was somehow compromised by the experimental conditions or by the structural differences of the compounds.
To duplicate unexpected absorbances from 4-131, stocks of probes from 4-128 used to create true 50 uM stocks. UV absorbance at 330 nm measured in a 96-well plate, then 150 uL transferred to an opaque-bottom plate and emission intensity (350/445 nm) was measured. Experiments run in quadruplicate, with a buffer blank. Measured on a BioTek Synergy H1.
50 uL of these solutions were diluted with 150 uL cathepsin L reaction buffer (pH 5.0) to give solutions of 5 uM compound in 25% DMSO/buffer. These samples were used to measure UV-Vis spectra (250-400 nm) on a Shimadzu UV-2700. A blank solution of 25% DMSO/buffer was used to baseline the instrument. Between samples, the cuvette was flushed with 200 uL DMSO, drained, and the next sample was added.
The remaining 150 uL of solution was diluted with 450 uL buffer to give 600 uL of 5 uM compound in 25% DMSO/buffer. The solution was transferred to an opaque-bottom 96-well plate, in three aliquots of 200 uL. The plate was used to measure emission and excitation spectra, and quantitative endpoint emission intensities. All spectral scans were collected at 50 Gain, in 5 nm steps.

[8] = standard, literature value; cited from earlier work

T1 sequence (P07711 114-333): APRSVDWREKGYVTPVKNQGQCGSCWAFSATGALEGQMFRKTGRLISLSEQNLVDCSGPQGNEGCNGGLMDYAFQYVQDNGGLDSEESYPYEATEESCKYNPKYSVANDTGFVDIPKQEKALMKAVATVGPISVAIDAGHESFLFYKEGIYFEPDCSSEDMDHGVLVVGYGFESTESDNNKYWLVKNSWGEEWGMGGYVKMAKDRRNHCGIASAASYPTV
T2 sequence (O60911 114-334): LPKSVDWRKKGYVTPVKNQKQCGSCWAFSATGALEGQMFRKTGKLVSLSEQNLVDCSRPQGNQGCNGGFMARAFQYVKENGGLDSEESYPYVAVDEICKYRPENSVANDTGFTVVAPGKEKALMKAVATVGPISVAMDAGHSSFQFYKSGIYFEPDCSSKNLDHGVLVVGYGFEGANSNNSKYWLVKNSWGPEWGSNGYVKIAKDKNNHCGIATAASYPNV
T3 sequence (P25774 115-331): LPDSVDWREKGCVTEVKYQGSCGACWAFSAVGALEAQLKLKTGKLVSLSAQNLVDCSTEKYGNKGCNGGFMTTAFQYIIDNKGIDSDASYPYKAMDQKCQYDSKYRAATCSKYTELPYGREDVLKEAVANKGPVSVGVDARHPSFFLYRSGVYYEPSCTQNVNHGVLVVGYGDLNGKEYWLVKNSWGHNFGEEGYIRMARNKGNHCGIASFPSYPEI

Row | Compound | Lowest sum of signals from all three enzymes (B + V + S) normalized to CTL (CTB, CTV, and CTS; pH 5.0) [%] | Lowest sum of signals from all three enzymes (B + V + S) normalized to CTL (CTB, CTV, and CTS; pH 6.5) [%] | Optimal (lowest) CTV signal normalized to CTL ([3]; pH 5.0) [%] | Optimal (lowest) CTV signal normalized to CTL ([3]; pH 6.5) [%] | ε × 10^−3 (molar attenuation coefficient) [4] | ϕF (quantum yield) [4] | Optimal (lowest) CTS signal normalized to CTL ([5]; pH 5.0) [%] | Optimal (lowest) CTS signal normalized to CTL ([5]; pH 6.5) [%] | Optimal (lowest) CTB signal normalized to CTL ([6]; pH 5.0) [%] | Optimal (lowest) CTB signal normalized to CTL ([6]; pH 6.5) [%] | emission intensity (background) ([7]; 350/445 nm) [rfu] | further results
1 | Cc1cc(=O)oc2cc(NC(=O)C(CCCCN)NC(=O)C(Cc3ccc(-c4cccs4)cc3)NC(=O)OCc3ccccc3)ccc12 (centres unmarked) [CTLAP] | 31 | 25 | 10 | 15 | 11.0 | 0.02 | 1 | 1 | 15 | 6 | 6.1e3 | selectivity for CTL over other cathepsins [1]: 6- to 10 fold; turn-on ratio (TOR) relative to that of sc-3136 ([1]; after 1 h incubation): approximately 4 fold; increase in emission intensity ([1]; within 10 min of incubation with CTL): 24 fold; conversion of probe to free AMC peak (HPLC) [2]: full conversion; emission intensity in buffer without enzyme, fold lower than sc-3136 ([7]; compound at 5 μM, 350 nm excitation, 445 nm emission): 6- to 8 fold
2 | Cc1cc(=O)oc2cc(O)ccc12 [MU, 4-methylumbelliferone] | – | – | – | – | – | – | – | – | – | – | – | ε × 10^−3 (molar attenuation coefficient) [8]: 19.3; ϕF (quantum yield) [8]: 0.63
3 | Cc1cc(=O)oc2cc(NC(=O)C(CCCN=C(N)N)NC(=O)C(Cc3ccccc3)NC(=O)OCc3ccccc3)ccc12 (stereo not drawn) [sc-3136, Z-FR-AMC] (Cbz-Phe-Arg-{AMC}; configuration not given here) | 39 | 46 | 14 | 16 | 7.5 | 0.32 | 7 | 7 | 16 | 21 | 4.8e4 | ratio of background intensity for sc-3136 over 3-157 ([7]; 350/445 nm): 7.8 ×; emission intensity ratio between sc-3136 and CTLAP ([7]; excitation at 330 nm): 6.9 fold; emission intensity ratio between sc-3136 and CTLAP ([7]; excitation at 350 nm): 6.3 fold
